Assay results from patent publication US20230255219A1, “SLOW RELEASE COMPOSITE ACTIVE FILMS/PACKAGING TO REDUCE FOODBORNE PATHOGENS AND IMPROVE SHELF LIFE OF RAW AND READY TO EAT FOODS” (The Penn State Research Foundation, priority 2019, published 2023).

What was measured:
STEC cocktail [1] = format: cell-based
Salmonella spp. cocktail [2] = format: cell-based
[3] = tested on: L. monocytogenes cocktail; format: cell-based, Listeria monocytogenes
S. aureus cocktail [4] = format: cell-based, Staphylococcus aureus
Salmonella spp. cocktail [5] = test: Minimum bactericidal concentration (MBC), plating of wells on selective media; format: cell-based
Method: (§1) A resazurin indicator-based, 96-well microplate dilution method (Elshikh et al., 2016) was used for in vitro determination of MIC and MBC of LAE, nisin and thymol against different foodborne pathogens. Overnight cultures were grown in TSB (37° C.) and a cocktail of STEC, Salmonella spp., L. monocytogenes and S. aureus was prepared by mixing equal volumes of the three corresponding strains to obtain approximately 8 log10 CFU/mL of the pathogens. Bacterial cells were washed by centrifugation at 8000 rpm/10 minutes, and cell pellets were re-suspended in the same volume of sterile Mueller Hinton Broth (MHB; Difco).
(§2) FIG. 1 illustrates the resazurin indicator-based, 96-well microplate dilution method for MIC determination of different antimicrobials against bacterial cocktails. A 100,000 IU/mL concentration of nisin (VWR) was dissolved in HCl 0.02N; 10% thymol (VWR) was prepared in concentrated ethanol; and 10% LAE (MB) was prepared in sterile distilled water. All antimicrobials were sterilized by filtration through a 0.22 μm filter (Pall; Ann Arbor, Mich.).). Each antimicrobial was diluted in sterile MHB to obtain a final concentration of 50,000 IU/mL of nisin, 5% thymol, and 5% LAE. Using a multi-channel pipette (Eppendorf; Haoppauge, N.Y.), one hundred μL of each antimicrobial in MHB was dispensed into a row in a 96-well microplate. Subsequent serial dilutions of the antimicrobials were made in MHB using the multi-channel pipette by transferring and mixing 50 μL of each compound to obtain antimicrobial concentrations of nisin (50,000-390.6 IU/mL), thymol (5-0.039%) and LAE (5-0.039%). Bacterial cocktails were diluted 1:100 in a sterile MHB to reach a concentration of approximately 6 log10 CFU/mL, with 50 μL of each cocktail added to the respective well. […]
(§3) The MBC was determined by directly inoculating the content of wells with concentrations higher than the MIC value on selective growth media. […] The MBC value was determined as the lowest concentration when there were no bacterial colonies observed (Elshikh et al., 2016).

[6] = tested on: L. monocytogenes cocktail; test: as above; format: cell-based, Listeria monocytogenes
Method: as §1, §2, §3

S. aureus cocktail [7] = test: as above; format: cell-based, Staphylococcus aureus
Method: as §1, §2, §3

[8] = tested on: all tested bacterial pathogens (STEC, Salmonella spp., L. monocytogenes, S. aureus); format: cell-based
[9] = cited from earlier work
STEC cocktail [10] = format: cell-based; remark: listed apart in the source

CCCCCCCCCCCC(=O)N[C@@H](CCCN=C(N)N)C(=O)OCC [LAE, lauric arginate]
MIC, LAE (STEC cocktail [1]; 24 h at 37° C.): 0.078 % (V/V) | MIC, LAE (Salmonella spp. cocktail [2]; 24 h at 37° C.): 0.078 % (V/V) | MIC, LAE ([3]; 24 h at 37° C.): 0.078 % (V/V) | MIC, LAE (S. aureus cocktail [4]; 24 h at 37° C.): 0.078 % (V/V) | MBC, LAE (Salmonella spp. cocktail [5]): 0.625 % (V/V) | MBC, LAE [6]: 0.313 % (V/V) | MBC, LAE (S. aureus cocktail [7]): 0.313 % (V/V) | concentration of LAE that inhibited all tested bacterial pathogens [8]: 0.078% | metabolism of LAE in the human body [9]: rapidly metabolized in the human body to lauric acid and arginine

Cc1ccc(C(C)C)c(O)c1 [Thymol, thymol]
MIC, Thymol (STEC cocktail [1]): 1.25 % (W/V) | MIC, Thymol (Salmonella spp. cocktail [2]): 0.625 % (W/V) | MIC, Thymol [3]: 0.625 % (W/V) | MIC, Thymol (S. aureus cocktail [4]): 0.156 % (W/V) | MBC, Thymol (STEC cocktail [10]): 2.5 % (W/V) | MBC, Thymol (Salmonella spp. cocktail [5]): 2.5 % (W/V) | MBC, Thymol [6]: 1.25 % (W/V) | MBC, Thymol (S. aureus cocktail [7]): 1.25 % (W/V)

nisin
MIC, Nisin (STEC cocktail [1]; 24 h at 37° C.): Nil (key: Nil indicates there was no growth inhibition, nor killing effect at ≤ 50,000 IU/mL) | MIC, Nisin (Salmonella spp. cocktail [2]; 24 h at 37° C.): Nil (key: Nil indicates there was no growth inhibition, nor killing effect at ≤ 50,000 IU/mL) | MIC, Nisin ([3]; 24 h at 37° C.): Nil (key: Nil indicates there was no growth inhibition, nor killing effect at ≤ 50,000 IU/mL) | MIC, Nisin (S. aureus cocktail [4]; 24 h at 37° C.): Nil (key: Nil indicates there was no growth inhibition, nor killing effect at ≤ 50,000 IU/mL) | MBC, Nisin (STEC cocktail [10]): Nil (key: Nil indicates there was no growth inhibition, nor killing effect at ≤ 50,000 IU/mL) | MBC, Nisin (Salmonella spp. cocktail [5]): Nil (Nil indicates there was no growth inhibition, nor killing effect at ≤ 50,000 IU/mL) | MBC, Nisin [6]: Nil (Nil indicates there was no growth inhibition, nor killing effect at ≤ 50,000 IU/mL) | MBC, Nisin (S. aureus cocktail [7]): Nil (Nil indicates there was no growth inhibition, nor killing effect at ≤ 50,000 IU/mL) | antibacterial activity of nisin in MIC and MBC experiments [8]: very poor antibacterial activity
